Some results are limits rather than exact numbers.

The subject of this assay is human mammary cancer-derived KPL-4 cells. Put plainly: Growth inhibition test on human mammary cancer-derived KPL-4 cells (WST-1). It is filed as cell-based. Particulars: KPL4, 72 hours culture, read-out: 50% growth inhibitory concentration (GI50). As to the method: Two thousand cells of human mammary cancer-derived KPL-4 cells were inoculated into each well of a 96-well microplate (manufactured by Nunc Corp.), and using Dulbecco's Modified Eagle's Medium (DMEM) (culture medium) containing 10% fetal calf serum (FCS), preculturing was performed in a 5% carbon dioxide incubator at 37° C. for 24 hours. A dimethyl sulfoxide (DMSO) solution of each test compound prepared in a concentration of 10 mmol/L was diluted with the culture medium step-by-step to a final concentration of […], and the diluted solution was added to each well. The individual wells were further cultured in the 5% carbon dioxide incubator at 37° C. for 72 hours. After completion of the culturing, 20 μL of WST-1 {4-[3-(4-Iodophenyl)-2-(4-nitrophenyl)-2H-5-tetrazolio]-1,3-benzene disulfonate} reagent mixture (manufactured by Roche Diagnostic Corp.) diluted to twice its original amount by culture medium was added to each well, and culturing was performed in the 5% carbon dioxide incubator at 37° C. for 1 hour. Using a microplate spectrophotometer (Model 550; manufactured by Bio-Rad), the absorbance of each well was measured at 450 nm and 655 nm. The cell growth inhibitory activity was expressed as 50% growth inhibitory concentration (GI50). The method for calculating the GI50 value is as follows. A value obtained by subtracting the absorbance at 655 nm from the absorbance at 450 nm (absorbance difference) was calculated for each well. The absorbance difference obtained for cells not treated with a test compound was designated as 100%, which was compared with the absorbance difference obtained for cells treated with each compound at various test concentrations, and thus the compound concentration at which cell growth was inhibited by 50% was calculated to determine the GI50 value.
In general terms: Tetrazolium dyes change colour on reduction, which living cells bring about.

As to `O=C(NCCc1ccccc1)c1c(O)cc(O)cc1COCc1ccccc1` [Compound 3, 2-(Benzyloxymethyl)-4,6-dihydroxy-N-phenethylbenzamide], the GI50 is not above 50 µM. For `CCCN(C)C(=O)c1c(O)cc(O)c(CC)c1CC(=O)OC` [Compound 15, [2-Ethyl-3,5-dihydroxy-6-(N-methyl-N-propylcarbamoyl)phenyl]acetic acid methyl ester] the value was not above 50 µM. `O=C(NCc1ccccc1)c1c(O)cc(O)cc1COCc1ccccc1` [Compound 2, N-benzyl-2-(benzyloxymethyl)-4,6-dihydroxybenzamide]: the GI50 was not above 50 µM. For `COC(=O)c1c(O)cc(O)c(Br)c1COCc1ccccc1` [Compound 10, 2-(Benzyloxymethyl)-3-bromo-4,6-dihydroxybenzoic acid methyl ester] the value was not above 50 µM; for `CCc1c(O)cc(O)c(C(=O)OC)c1CC(=O)OC` [Compound 23, 3-Ethyl-4,6-dihydroxy-2-(methoxycarbonylmethyl)benzoic acid methyl ester], not above 50 µM; for `CCc1c(O)cc(O)c(C(=O)N2CCN(C)CC2)c1CC(=O)OC` [Compound 18, [2-Ethyl-3,5-dihydroxy-6-(4-methylpiperazin-1-ylcarbonyl)phenyl]acetic acid methyl ester], not above 50 µM. The figure for `CCc1c(O)cc(O)c(C(=O)N(C)CCOC)c1CC(=O)OC` [Compound 16, {2-Ethyl-3,5-dihydroxy-6-[N-(2-methoxyethyl)-N-methylcarbamoyl]phenyl}acetic acid methyl ester] is not above 50 µM. For `O=C(NCc1ccccn1)c1c(O)cc(O)c(Cl)c1COCc1ccccc1` [Compound 9, 2-(Benzyloxymethyl)-3-chloro-4,6-dihydroxy-N-(pyridin-2-ylmethyl)benzamide] the value was not above 50 µM. On to `CCc1c(O)cc(O)c(C(=O)N2CCOCC2)c1CC(=O)OC` [Compound 14, [2-Ethyl-3,5-dihydroxy-6-(morpholinocarbonyl)phenyl]acetic acid methyl ester], for which the GI50 is not above 50 µM. The figure for `CCc1c(O)cc(O)c(C(=O)NCc2ccccc2)c1CCO` [Compound 19, N-benzyl-3-ethyl-4,6-dihydroxy-2-(2-hydroxyethyl)benzamide] is not above 50 µM. For `O=C(Nc1ccccc1)c1c(O)cc(O)cc1COCc1ccccc1` [Compound 1, 2-(Benzyloxymethyl)-4,6-dihydroxy-N-phenylbenzamide] the value was not above 50 µM; for `CCc1c(O)cc(O)c(C(=O)N2CCCCC2)c1CC(=O)OC` [Compound 17, [2-Ethyl-3,5-dihydroxy-6-(piperidinocarbonyl)phenyl]acetic acid methyl ester], not above 50 µM.

These data come from patent US7781485B2, “Hsp90 family protein inhibitors” (Kyowa Hakko Kirin Co., Ltd., priority 2004, dated 2010).
